Experiments:
[1] = In vitro release, USP release method with apparatus 2 (paddle); assay type: physicochemical; conditions: 100 rpm, 900 ml phosphate buffer pH 6.8 + 1.0% sodium lauryl sulfate, JP sinker
Procedure: The in vitro release investigations described below were carried out by the USP release method with apparatus 2 (paddle). […] Also added to the buffer solution to set up sink conditions is 1% sodium lauryl sulfate. The tablet formulations are preferably released from a sinker as specified in the Japanese Pharmacopoeia.

[2] = cited from earlier work

## CCCc1nc2c(C)cc(-c3nc4ccccc4n3C)cc2n1Cc1ccc(-c2ccccc2C(=O)O)cc1 [Telmisartan]
[1]; from nifedipine/telmisartan osmotic two-chamber tablet, heading prints Exemplary Formulation 2.1, time 2 h
  Release [%] at 2 h: 5%
[1]; from nifedipine/telmisartan osmotic two-chamber tablet, heading prints Exemplary Formulation 2.1, time 5 h
  Release [%] at 5 h: 22%
[1]; from nifedipine/telmisartan osmotic two-chamber tablet, heading prints Exemplary Formulation 2.1, time 10 h
  Release [%] at 10 h: 51%
[1]; from nifedipine/telmisartan osmotic two-chamber tablet, heading prints Exemplary Formulation 2.1, time 15 h
  Release [%] at 15 h: 80%
[1]; from nifedipine/telmisartan osmotic two-chamber tablet, heading prints Exemplary Formulation 2.1, time 24 h
  Release [%] at 24 h: 90%

## CCOc1nc2cccc(C(=O)OC(C)OC(=O)OC3CCCCC3)c2n1Cc1ccc(-c2ccccc2-c2nnn[nH]2)cc1 (stereo not shown) [candesartan cilexetil]
[2]
  water solubility, classified in words: virtually insoluble in water

## COC(=O)C1=C(C)NC(C)=C(C(=O)OCC(C)C)C1c1ccccc1[N+](=O)[O-] (stereo not shown) [nisoldipine]
[2]
  water solubility: about 2 mg/l

## CCCCc1nc(Cl)c(CO)n1Cc1ccc(-c2ccccc2-c2nn[nH]n2)cc1 [Losartan-K, losartan potassium]
[1]; from tablet Exemplary formulation 2.1 (30 mg nifedipine, osmotic two-chamber system), time 2 h
  Release [%] at 2 h: 2%
[1]; from tablet Exemplary formulation 2.1 (30 mg nifedipine, osmotic two-chamber system), time 4 h
  Release [%] at 4 h: 19%
[1]; from tablet Exemplary formulation 2.1 (30 mg nifedipine, osmotic two-chamber system), time 8 h
  Release [%] at 8 h: 48%
[1]; from tablet Exemplary formulation 2.1 (30 mg nifedipine, osmotic two-chamber system), time 12 h
  Release [%] at 12 h: 77%
[1]; from tablet Exemplary formulation 2.1 (30 mg nifedipine, osmotic two-chamber system), time 24 h
  Release [%] at 24 h: 96%
[2]
  water solubility, classified in words: freely soluble

— patent US8153160B2 (Bayer Pharma Aktiengesellschaft, priority 2005, dated 2012)
